Assay results published in patent US20030190650A1 (priority 2000, published 2003).

Tested on: primary human neutrophils
Assay: Gliotoxin block of GM-CSF inhibition of neutrophil apoptosis (MTT)
Type: cell-based
Conditions: 0.1 μg/ml with 5 U/ml GM-CSF
Method: Primary human neutrophils are isolated and purified from peripheral blood of normal healthy individuals. Neutrophils are resuspended in serum containing culture medium containing 5 U/ml of GM-CSF at a concentration of 2×10^6/ml. […] After the indicated time, 10 μl of MTT (5 mg/ml) are added to the cultures and incubated for a further 4 h at 37° C. before solubilisation of the purple coloured formazan with acidic isopropanol. Optical densities are read at 570 nm using a plate reader.

`CS[C@]1(CO)C(=O)N2[C@H]3C(=CC=C[C@@H]3O)C[C@@]2(SC)C(=O)N1C` [methylgliotoxin, bis-Dethio-bis (Methylthio) Gliotoxin] was tested, and the “effect on GM-CSF inhibition of neutrophil apoptosis” value was “blocking effect is not seen”.
